Measurements published in ChEMBL document CHEMBL1121724 (J Med Chem, 1981).
pIC50: −log10 of the molar value.

Molecular target: Thromboxane-A synthase (Oryctolagus cuniculus)
Experiment: Inhibitory activity against Thromboxane synthetase
Settings: not given

| SMILES | pIC50 |
| --- | --- |
| C/C(=C\C(=O)O)c1ccc(Cc2cccnc2)cc1 | 7.25 |
| O=C(O)CCCCc1cccnc1 | 6.30 |
| CC/C(=C\c1ccc(Cc2cccnc2)cc1)C(=O)O | 8.15 |
| O=C(O)CCc1ccc(Cc2cccnc2)cc1 | 6.68 |
| C/C(=C\c1ccc(Cc2ccncc2)cc1)C(=O)O | < 6.00 |
| CC(Cc1ccc(Cc2cccnc2)cc1)C(=O)O (stereo not drawn) | 7.70 |
| O=C(O)CCCCCc1cccnc1 | 7.07 |
| O=C(O)/C=C/c1ccc(Cc2cccnc2)s1 | 7.33 |
| C/C(=C/c1ccc(Cc2cccnc2)cc1)C(=O)O | 8.52 |
| C/C(=C\c1ccc(C(C)c2cccnc2)cc1)C(=O)O (stereo not drawn) | 7.60 |
| O=C(O)CCCCCCCc1ccncc1 | < 6.00 |
| O=C(O)CCCCCCc1cccnc1 | 7.17 |

Other lines, results leading:

| pIC50 | SMILES |
| --- | --- |
| < 6.00 | O=C(O)CCCCCn1ccnc1 |
| 8.30 | O=C(O)/C(Br)=C/c1ccc(Cc2cccnc2)cc1 |
| < 6.00 | O=C(O)CCCCc1ccncc1 |
| 7.92 | C/C(=C\c1ccc(Cc2cccnc2)s1)C(=O)O |
| < 6.00 | O=C(O)CCCCn1ccnc1 |
| 8.40 | C/C(=C\c1ccc(Cn2ccnc2)cc1)C(=O)O |
| < 6.00 | O=C(O)CCCCCCc1ccncc1 |
| 7.12 | O=C(O)CCCCCCCc1cccnc1 |
| < 6.00 | O=C(O)CCCCCc1ccncc1 |
| 7.74 | C/C(=C\C(=O)O)c1ccc(Cc2cccnc2)c(C)c1 |
| 8.00 | O=C(O)/C=C/c1ccc(Cc2cccnc2)cc1 |

Test system: Thromboxane-A synthase (Oryctolagus cuniculus)
Experiment: not given
Settings: at 100 µM

| SMILES | inhibition |
| --- | --- |
| c1cscn1 | 17.3% |
| c1ccnnc1 | 16.8% |

Continued, values first:

| inhibition | SMILES |
| --- | --- |
| 8.9% | c1cn[nH]c1 |
| 11% | c1ncncn1 |

Molecular target: T1, Thromboxane-A synthase (Homo sapiens) (UniProt P24557)
T1 sequence (whole entry): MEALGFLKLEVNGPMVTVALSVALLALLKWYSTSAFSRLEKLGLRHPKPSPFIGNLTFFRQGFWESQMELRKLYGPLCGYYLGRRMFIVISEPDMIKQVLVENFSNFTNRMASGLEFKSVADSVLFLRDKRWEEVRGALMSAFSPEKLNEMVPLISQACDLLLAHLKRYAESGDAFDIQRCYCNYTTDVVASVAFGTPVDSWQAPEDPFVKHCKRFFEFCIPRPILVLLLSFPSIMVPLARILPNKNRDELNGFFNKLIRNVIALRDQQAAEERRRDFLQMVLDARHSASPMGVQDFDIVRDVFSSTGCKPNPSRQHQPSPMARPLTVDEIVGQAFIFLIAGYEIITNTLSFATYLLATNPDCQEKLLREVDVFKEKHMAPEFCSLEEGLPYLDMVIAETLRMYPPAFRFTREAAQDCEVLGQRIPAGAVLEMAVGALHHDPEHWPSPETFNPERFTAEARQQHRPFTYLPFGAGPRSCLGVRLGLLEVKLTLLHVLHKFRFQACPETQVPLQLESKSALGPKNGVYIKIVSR
Experiment: Inhibition of Thromboxane synthetase at 100 µM
Settings: not given

| inhibition | SMILES |
| --- | --- |
| 12% | c1cncnc1 |
